Experimental data reported in ChEMBL document CHEMBL4256947, “Treatment of pancreatic and related cancers with 5-acyl-6,7-dihydrothieno[3,2-c]pyridines” (2016).

Biological target: Protein-cysteine N-palmitoyltransferase HHAT (Homo sapiens) (UniProt Q5VTY9)
Experiment: Inhibition of HA/FLAG/His-tagged Hhat (unknown origin) expressed in human 293T cells at 25 uM using biotinylated Shh peptide as substrate pretreated for 20 mins followed by [125I]-iodo-palitoylCoA/substrate addition measured after 1 hr by gamma counting method relative to control

Sequence of Protein-cysteine N-palmitoyltransferase HHAT (Homo sapiens) (Q5VTY9 whole entry): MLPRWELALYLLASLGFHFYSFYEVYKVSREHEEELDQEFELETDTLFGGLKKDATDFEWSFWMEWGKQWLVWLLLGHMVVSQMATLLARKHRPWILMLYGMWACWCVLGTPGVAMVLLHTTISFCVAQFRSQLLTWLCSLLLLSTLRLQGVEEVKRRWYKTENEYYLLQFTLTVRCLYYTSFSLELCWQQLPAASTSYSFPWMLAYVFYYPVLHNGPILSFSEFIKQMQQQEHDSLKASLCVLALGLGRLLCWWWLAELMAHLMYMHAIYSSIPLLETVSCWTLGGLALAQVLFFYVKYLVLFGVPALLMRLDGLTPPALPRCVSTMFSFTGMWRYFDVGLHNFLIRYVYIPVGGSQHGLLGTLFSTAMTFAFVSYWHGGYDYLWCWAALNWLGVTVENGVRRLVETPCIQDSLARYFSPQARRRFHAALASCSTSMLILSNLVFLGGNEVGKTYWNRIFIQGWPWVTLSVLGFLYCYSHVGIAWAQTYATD

Row | inhibition [%] | Compound
1 | > 75 | CCC(C)CNCC(=O)N1CCc2sccc2C1c1cccc(C)c1 (configuration not stated)
2 | > 75 | CCC(C)CNCC(=O)N1CCc2sccc2C1c1cccc(C)n1 (configuration not stated)
